{"source": "patent US20190216093A1", "about": "“COMPOSITIONS AND RELATED METHODS FOR AGRICULTURE” (priority 2017, published 2019)", "key": {"Sitophilus maize weevils [1]": {"system": "Sitophilus maize weevils", "assay": "Weevil survival monitoring", "format": "in vivo, Sitophilus zeamais", "conditions": "S. zeamais mating pairs; 250 μg/ml or 2.5 mg/ml ciprofloxacin; 18 days", "protocol": "Sitophilus maize weevils (Sitophilus zeamais) were reared on organic corn at 27.5° C. and 70% relative humidity. Prior to being used for weevil rearing, corn was frozen for 7 days and then tempered to 10% humidity with sterile water. […] For treatments, the appropriate amount of stock solution was diluted in sterile water.\nWeevil survival was monitored daily for 18 days, after which DNA was extracted from the remaining weevils in each group. Briefly, the weevil body was surface sterilized by dipping the weevil into a 6% bleach solution for approximately 5 seconds. […] DNA concentration was measured using a nanodrop nucleic acid quantification, and SPE and weevil DNA copy numbers were measured by qPCR. […] The primers used for weevil (β-actin) were SACT144_FOR ([…]; SEQ ID NO: 240) and SACT314_REV ([…]; SEQ ID NO: 241) (Login et al., 2011). qPCR was performed using a qPCR amplification ramp of 1.6 degrees C./s and the following conditions: 1) 95° C. for 10 minutes, 2) 95° C. for 15 seconds, 3) 57° C. for 30 seconds, 4) repeat steps 2-3 40×, 5) 95° C. for 15 seconds, 6) 55° C. for 1 minute, 7) ramp change to 0.15 degrees C./s, 8) 95° C. for 1 second. qPCR data was analyzed using analytic (Thermo Fisher Scientific, QuantStudio Design and Analysis) software."}, "Escherichia coli DH5α": {"system": "Escherichia coli DH5α", "assay": "Assessment of antibiotic penetration into corn (E. coli growth on LB plates)", "format": "cell-based", "conditions": "kernels soaked in 2.5 or 0.25 mg/ml ciprofloxacin", "protocol": "The kernels were soaked for 1.5 hours as described herein. After soaking, kernels were air dried and assayed to determine whether the antibiotic was able to coat and penetrate the kernel. To test this, a concentrated sample of Escherichia coli DH5α in water was spread onto 5 Luria Broth (LB) plates. […] The plates were incubated overnight at 37 degrees C. and bacterial growth and/or zone(s) of inhibition were assessed the next day.\nA concentrated culture of E. coli was then spread onto LB plates and one of the coated kernels was then placed onto the center of the plate. The plates were incubated overnight, and bacterial growth was assessed the next day.\nThe plates were incubated overnight and the next day bacterial growth was assessed."}, "Sitophilus maize weevils [2]": {"system": "Sitophilus maize weevils", "assay": "Weevil F1 offspring development (dissection of corn kernels)", "format": "in vivo, Sitophilus zeamais", "conditions": "for offspring in the larval form: after 25 days; for number of offspring found in dissected corn kernels: after 25 days (water 12)"}, "Sitophilus maize weevils [3]": {"system": "Sitophilus maize weevils", "assay": "Weevil offspring emergence (fecundity)", "conditions": "2.5 mg/ml ciprofloxacin; till day 43"}}, "data": [{"smiles": "O=C(O)c1cn(C2CC2)c2cc(N3CCNCC3)c(F)cc2c1=O", "note": "[ciprofloxacin]", "values": [{"measurement": "weevil survival", "setting": "Sitophilus maize weevils [1]", "result": "all weevils remained alive for the course of the experiment"}, {"measurement": "bacterial growth on plate with entire soaked corn kernel", "setting": "Escherichia coli DH5α", "result": "no bacteria grew on plates with entire corn kernels"}, {"measurement": "F1 weevil development", "setting": "Sitophilus maize weevils [2]; 250 ug/ml and 2.5 mg/ml ciprofloxacin", "result": "showed a delay in development compared to control treated weevils"}, {"measurement": "offspring in the larval form", "setting": "Sitophilus maize weevils [2]; 250 ug/ml ciprofloxacin", "result": 38, "unit": "%"}, {"measurement": "number of offspring found in dissected corn kernels", "setting": "Sitophilus maize weevils [2]; 250 ug/ml ciprofloxacin", "result": 13, "unit": "offspring"}, {"measurement": "offspring in the larval form", "setting": "Sitophilus maize weevils [2]; 2.5 mg/ml ciprofloxacin", "result": 65, "unit": "%"}, {"measurement": "number of offspring found in dissected corn kernels", "setting": "Sitophilus maize weevils [2]; 2.5 mg/ml ciprofloxacin", "result": 20, "unit": "offspring"}, {"measurement": "emerged F1 offspring", "setting": "Sitophilus maize weevils [3]", "result": "much less offspring that emerged"}]}]}
